These results are taken from paper PMC9147192, “Small Molecule Arranged Thermal Proximity Coaggregation (smarTPCA)—A Novel Approach to Characterize Protein–Protein Interactions in Living Cells by Similar Isothermal Dose–Responses” (International Journal of Molecular Sciences, 2022).

Assay in all cases: TPP-CCR in living HL-60 cells
Common to all, as to format: cell-based

In one experiment the target is T1, FECH (Homo sapiens, UniProt P22830).
T1 construct: endogenous in cells; host or cells: HL-60 (ATCC CCL-240)
T1 sequence (P22830 55-423): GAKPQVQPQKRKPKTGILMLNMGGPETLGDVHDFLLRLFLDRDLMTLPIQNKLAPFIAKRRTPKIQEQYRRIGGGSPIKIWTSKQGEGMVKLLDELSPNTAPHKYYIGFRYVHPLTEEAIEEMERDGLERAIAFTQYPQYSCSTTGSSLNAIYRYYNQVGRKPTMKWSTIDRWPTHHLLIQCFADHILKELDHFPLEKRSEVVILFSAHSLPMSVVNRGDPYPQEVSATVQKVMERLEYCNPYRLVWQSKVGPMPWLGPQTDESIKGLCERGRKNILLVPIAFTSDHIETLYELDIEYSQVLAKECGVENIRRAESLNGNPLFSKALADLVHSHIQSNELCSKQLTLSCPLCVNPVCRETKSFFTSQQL

For the next experiment, the target named is T2, NOP2 (Homo sapiens, UniProt P46087).
T2 construct: dose–responses (mean over replicates), derived from TPP-CCR experiments in living cells; endogenous in cells; host or cells: HL-60 cells (ATCC No. CCL-240)
T2 sequence (P46087 1-812): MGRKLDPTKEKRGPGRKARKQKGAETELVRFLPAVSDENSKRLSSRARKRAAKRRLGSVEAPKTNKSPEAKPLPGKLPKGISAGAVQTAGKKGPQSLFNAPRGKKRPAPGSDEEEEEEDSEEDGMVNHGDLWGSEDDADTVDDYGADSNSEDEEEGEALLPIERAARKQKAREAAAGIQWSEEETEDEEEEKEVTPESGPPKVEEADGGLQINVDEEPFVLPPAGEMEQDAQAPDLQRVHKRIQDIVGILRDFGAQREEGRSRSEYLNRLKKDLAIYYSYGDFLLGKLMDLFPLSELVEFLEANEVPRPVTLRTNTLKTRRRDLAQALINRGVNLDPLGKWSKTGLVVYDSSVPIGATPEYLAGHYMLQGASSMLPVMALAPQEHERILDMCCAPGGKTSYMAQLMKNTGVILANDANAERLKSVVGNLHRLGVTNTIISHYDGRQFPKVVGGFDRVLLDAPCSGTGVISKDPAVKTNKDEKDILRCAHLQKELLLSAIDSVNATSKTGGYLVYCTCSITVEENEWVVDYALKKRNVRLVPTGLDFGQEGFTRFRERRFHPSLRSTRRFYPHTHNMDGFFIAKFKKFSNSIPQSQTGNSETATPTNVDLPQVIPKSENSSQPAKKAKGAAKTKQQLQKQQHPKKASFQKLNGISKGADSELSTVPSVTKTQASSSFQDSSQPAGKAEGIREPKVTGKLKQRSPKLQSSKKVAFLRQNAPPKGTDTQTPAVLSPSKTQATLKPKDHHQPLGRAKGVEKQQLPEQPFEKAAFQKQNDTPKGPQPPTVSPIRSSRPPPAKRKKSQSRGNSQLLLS

Another experiment deals with T3, UGGT1 (Homo sapiens, UniProt Q9NYU2).
T3 construct: endogenous in cells; host or cells: HL-60 (ATCC CCL-240)

Where [1] appears, read: living HL-60 cells, […] °C, TMT-MS.

T3 sequence (Q9NYU2 43-1555): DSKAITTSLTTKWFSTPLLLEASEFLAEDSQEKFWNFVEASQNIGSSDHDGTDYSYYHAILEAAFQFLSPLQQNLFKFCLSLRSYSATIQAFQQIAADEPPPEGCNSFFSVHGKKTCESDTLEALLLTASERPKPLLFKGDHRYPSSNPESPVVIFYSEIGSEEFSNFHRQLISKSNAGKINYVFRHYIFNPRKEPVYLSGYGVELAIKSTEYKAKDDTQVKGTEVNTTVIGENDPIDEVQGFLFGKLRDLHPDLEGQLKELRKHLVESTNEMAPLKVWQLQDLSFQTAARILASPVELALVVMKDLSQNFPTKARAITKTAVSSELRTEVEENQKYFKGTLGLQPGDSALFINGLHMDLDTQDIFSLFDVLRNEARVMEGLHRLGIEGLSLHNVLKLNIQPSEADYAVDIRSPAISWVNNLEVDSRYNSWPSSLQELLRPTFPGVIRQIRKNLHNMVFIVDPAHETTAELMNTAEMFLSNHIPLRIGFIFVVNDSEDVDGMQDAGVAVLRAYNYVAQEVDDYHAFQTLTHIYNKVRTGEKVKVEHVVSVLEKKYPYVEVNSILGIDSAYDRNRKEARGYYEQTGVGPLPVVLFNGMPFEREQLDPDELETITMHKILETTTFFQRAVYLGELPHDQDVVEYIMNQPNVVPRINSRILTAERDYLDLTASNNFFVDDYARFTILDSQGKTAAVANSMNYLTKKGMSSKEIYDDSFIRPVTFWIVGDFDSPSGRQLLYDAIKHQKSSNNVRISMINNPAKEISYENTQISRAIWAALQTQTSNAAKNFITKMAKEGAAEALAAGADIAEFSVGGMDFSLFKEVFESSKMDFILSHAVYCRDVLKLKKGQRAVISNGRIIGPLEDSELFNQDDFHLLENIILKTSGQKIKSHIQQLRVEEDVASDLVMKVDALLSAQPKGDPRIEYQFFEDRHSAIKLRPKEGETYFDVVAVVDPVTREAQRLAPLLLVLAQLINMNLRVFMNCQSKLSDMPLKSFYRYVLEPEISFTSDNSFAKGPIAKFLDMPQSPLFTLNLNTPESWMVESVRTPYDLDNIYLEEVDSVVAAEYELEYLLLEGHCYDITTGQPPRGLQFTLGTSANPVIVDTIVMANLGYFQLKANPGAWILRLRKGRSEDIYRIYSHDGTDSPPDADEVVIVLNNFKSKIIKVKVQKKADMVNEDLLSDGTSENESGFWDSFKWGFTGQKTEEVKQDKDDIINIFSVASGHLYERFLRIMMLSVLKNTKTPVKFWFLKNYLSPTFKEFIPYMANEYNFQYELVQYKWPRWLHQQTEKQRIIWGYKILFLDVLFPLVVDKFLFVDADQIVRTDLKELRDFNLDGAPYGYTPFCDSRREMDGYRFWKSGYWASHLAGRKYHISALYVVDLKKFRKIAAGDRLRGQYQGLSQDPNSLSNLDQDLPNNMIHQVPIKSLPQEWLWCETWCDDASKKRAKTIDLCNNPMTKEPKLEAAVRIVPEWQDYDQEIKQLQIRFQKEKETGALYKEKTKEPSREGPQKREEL

The Hill slope is a measure of the steepness of the concentration-response curve. `Cc1cnc(Nc2ccc(F)cc2Cl)nc1-c1c[nH]c(C(=O)N[C@H](CO)c2cccc(Cl)c2)c1` [ERK 11e]: the Hill slope on FECH (TPP-CCR, living cells, FECH) stood at 0.38; on NOP2 (TPP-CCR, living cells, NOP2), 0.29; at UGGT1 (TPP-CCR, living cells, UGGT1), 1.97. Further, the EC50 on FECH (setting [1]) is 631 nM; on NOP2 (living HL-60 cells, […] °C, TMT-MS, read-out: pEC50 (NOP2) (converted)) it was 105 nM; on UGGT1 (living HL-60 cells, […] °C, TMT-MS, read-out: pEC50 (UGGT1) (converted)) it was 5.37 µM. Moreover, the “Hill slope (FECH)” value at FECH (setting [1]) was 0.38. The “Hill slope (NOP2)” value at NOP2 (setting [1]) was 0.29. Moreover, the “Hill slope (UGGT1)” value at UGGT1 (setting [1]) was 1.97.
